Results taken from patent publication US12180138B2, “Lipid nanoparticle compositions for delivering circular polynucleotides” (Orna Therapeutics, Inc., priority 2021, dated 2024).

Tests used:
splenic T cells = assay: mOX40L expression in splenic T cells after IV LNP-circular RNA; type: in vivo, C57BL/6 mice; details: 1 mg/kg intravenously, 24 hours
Experimental: The ionizable lipid:helper lipid: cholesterol:PEG-lipid molar ratio of these LNPs was 50:10:38.5:1.5. C57BL/6 female mice (6-8 weeks, n=4) were dosed at 1 mg/kg intravenously. At 24 hours, the spleen from the mice were collected for flow cytometry analysis, tested for weight loss and measured for serum alanine aminotransferase (ALT) after blood collection. mOX40L expression was measured in splenic T cells.

[1] = test system: splenic immune cells (T cells, myeloid cells, B cells, NK cells); assay: mOX40L expression in splenic immune cells after IV LNP-circular RNA (flow cytometry); type: in vivo, C57BL/6 mice; details: 1 mg/kg intravenously, 24 hours; IL:P 5.7; vs Lipid 15 of Table 10f
Experimental: The ionizable lipid:helper lipid:cholesterol:PEG-lipid molar ratio of these LNPs was 50:10:38.5:1.5. Dialysis of the LNPs were performed using PBS. C57BL/6 female mice (6-8 weeks, n=4) were dosed at either LNP comprising Lipid 1 of Table 10e or the Lipid 15 of Table 10f at 1 mg/kg intravenously. At 24 hours, the spleen from the mice were collected for flow cytometry analysis. mOX40L transfection of Lipid 1 of Table 10e and Lipid 15 of Table 10f were compared in T cells, myeloid cells, B cells, and NK cells.

CCCCCCCCCCCCC(O)CN(CCCO)CCCCCCCC(=O)OC(CCCCCCCC)CCCCCCCC (centres unmarked) [Lipid 1 of Table 10e, heptadecan-9-yl 8-((3-hydroxypropyl)(2-hydroxytetradecyl)amino)octanoate]
mOX40L expression in splenic T cells (splenic T cells): expression of mOX40L in splenic T cells
mOX40L transfection in splenic immune cells [1]: comparable or higher levels of mOX40L transfection
